Test results taken from US12371432B2, “Haloallylamine compounds and application thereof” (TransThera Sciences (Nanjing), Inc., priority 2019, dated 2025).
Counter-ions that a name gives are not always drawn.

Columns and labels:
rhAOC1 = target: T1, rhAOC1 (Homo sapiens, UniProt P19801); assay: Selectivity against rhAOC1 enzyme (Biological Example 2); format: biochemical; conditions: Table 2; histamine substrate, Amplex Red/HRP
T1 construct: purchased R&D
T1 sequence (P19801 20-751): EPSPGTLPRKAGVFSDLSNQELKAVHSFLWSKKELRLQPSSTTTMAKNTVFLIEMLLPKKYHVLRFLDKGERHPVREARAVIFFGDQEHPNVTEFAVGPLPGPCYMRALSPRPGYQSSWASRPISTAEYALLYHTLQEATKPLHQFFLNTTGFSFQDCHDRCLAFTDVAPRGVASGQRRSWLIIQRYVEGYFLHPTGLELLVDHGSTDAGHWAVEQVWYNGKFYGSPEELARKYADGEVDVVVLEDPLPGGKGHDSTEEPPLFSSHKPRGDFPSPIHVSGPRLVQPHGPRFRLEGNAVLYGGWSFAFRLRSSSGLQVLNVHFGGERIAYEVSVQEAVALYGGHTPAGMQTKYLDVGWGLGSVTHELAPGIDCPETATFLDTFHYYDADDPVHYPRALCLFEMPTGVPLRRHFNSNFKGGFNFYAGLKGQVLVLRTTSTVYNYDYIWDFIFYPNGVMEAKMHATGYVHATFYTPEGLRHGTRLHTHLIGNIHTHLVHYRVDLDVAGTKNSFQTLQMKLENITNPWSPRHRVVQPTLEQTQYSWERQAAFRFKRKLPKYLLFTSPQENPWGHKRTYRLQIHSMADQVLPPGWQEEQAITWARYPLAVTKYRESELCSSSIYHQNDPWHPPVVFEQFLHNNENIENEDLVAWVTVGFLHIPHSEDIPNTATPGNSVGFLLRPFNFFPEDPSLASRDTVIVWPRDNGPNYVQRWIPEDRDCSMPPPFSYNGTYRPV
Experimental: 2. Selectivity of Compounds Against rhAOC1 Enzyme
(§1) (1) Instrument, Consumable and Reagent
Microplate reader (Perkin Elmer, Nivo 5S), black unclear-bottom 96-well plate (Corning) and rhAOC1 (R&D)
(§2) (2) Preparation of Concentration Gradient Compound Solutions
An appropriate amount of the compound to be tested was taken, dissolved in DMSO to 10 mM and then stored. Before the study, an appropriate amount of mother liquor of the 10 mM compound to be tested was taken and gradiently diluted 3-fold with DMSO, 10 concentration gradients in total. Each concentration gradient was then diluted 10-fold with 0.1 M of PBS.
(§3) (3) Preparation of Enzyme Solutions
An appropriate amount of rhAOC1 mother liquor with a concentration of 0.441 mg/mL was taken and diluted with an appropriate amount of 50 mM HEPES buffer solution to obtain enzyme solutions of 4× concentrations.
(§4) (4) Preparation of Substrate Mixtures of 2× Concentrations
An appropriate amount of histamine was weighed and dissolved with 50 mM of HEPES buffer solution to obtain 20 mM of histamine solution. The histamine solution was added with 2 mM of Amplex Red mother liquor and 500 U/mL of HRP mother liquor and diluted with 50 mM of HEPES buffer solution to obtain substrate mixtures of 2× concentrations.
10 μL compound solutions of different concentrations, 25 μL rhAOC1 enzyme solutions of 4× concentrations and 15 μL of 50 mM HEPES buffer solution were first added into a 96-well plate, shaken to be mixed uniformly and then incubated at 37° C. for 30 min. 50 μL substrate mixtures of 2× concentrations were then added into each well, and the microplate reader was immediately used to detect fluorescence intensity of each well with 580 nm (20 nm) exciting light and 620 nm (10 nm) emission light for 5 min each time, 30 min in total. The inhibition rate was calculated according to the following formula: V (RFU/min)=(Ft (RFU)−F0 (RFU))/(time(min)) Inhibition rate (%)=100%−Vcmpd (RFU/min)/Vmax (RFU/min)×100%
V: fluorescence change rate; Ft: fluorescence reading at time point t; F0: initial fluorescence reading; Time: duration t; Vcmpd: fluorescence change rate of tested compound; Vmax: Max hole fluorescence change rate.
(6) Fitting of Dose-Response Curve
(§5) With the log value of concentration as the X axis and the percent inhibition rate as the Y axis, the log (inhibitor) vs. response-variable slope of analysis software GraphPad Prism 5 was used to fit a dose-response curve, thus obtaining the IC50 value of activity of each compound against the enzyme.

MAO-B = target: T2, MAO-B (Homo sapiens, UniProt P27338); assay: Selectivity against MAO-B enzyme (MAO-Glo); format: biochemical
T2 construct: purchased Active Motif
T2 sequence (P27338 1-520): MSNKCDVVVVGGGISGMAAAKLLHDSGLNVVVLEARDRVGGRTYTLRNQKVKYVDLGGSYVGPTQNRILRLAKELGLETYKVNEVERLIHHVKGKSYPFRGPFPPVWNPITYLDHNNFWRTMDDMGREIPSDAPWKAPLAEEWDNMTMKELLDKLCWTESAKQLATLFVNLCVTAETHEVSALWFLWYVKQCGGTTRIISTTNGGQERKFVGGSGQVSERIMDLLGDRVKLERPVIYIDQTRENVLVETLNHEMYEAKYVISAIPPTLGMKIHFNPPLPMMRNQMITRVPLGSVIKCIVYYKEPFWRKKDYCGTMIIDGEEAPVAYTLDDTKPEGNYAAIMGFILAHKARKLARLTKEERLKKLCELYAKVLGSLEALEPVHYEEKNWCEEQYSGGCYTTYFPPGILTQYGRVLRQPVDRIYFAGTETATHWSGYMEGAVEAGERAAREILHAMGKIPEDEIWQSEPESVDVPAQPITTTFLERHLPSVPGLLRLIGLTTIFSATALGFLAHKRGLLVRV
Experimental: as §1
Microplate reader (Perkin Elmer, EnVision), 384-well plate (Perkin Elmer), centrifuge (Eppendorf), MAO-Glo™ (Promega), MAO-A (Active Motif) and MAO-B (Active Motif).
as §2
An appropriate amount of the compound to be tested was taken, dissolved in DMSO to 10 mM and then stored. The solution was then gradiently diluted 4-fold with DMSO, 6 concentration gradients in total.
as §3
MAO-A/B mother liquor was diluted with the experimental buffer for MAO-A/B to obtain enzyme solutions of 2× concentrations.
as §4
The mother liquor of MAO-A/B substrate mixture was diluted with the experimental buffer for MAO-A/B to obtain substrate mixtures of 2× concentrations.
200 nL compound solutions or solvents of different concentrations and 10 μL MAO-A/B enzyme solutions of 2× concentrations were added into a 384-well plate, centrifuged at 1,000 rpm for 60 s, shaken to be mixed uniformly and then incubated at room temperature for 15 min. 10 μL substrate mixtures of 2× concentrations were then added into each well, and reaction was initiated. The 384-well plate was centrifuged at 1,000 rpm for 60 s, shaken for a uniform mixing and then incubated at room temperature for 60 min. 20 μL of test stop solution was added to stop reaction. Centrifugation was performed at 1,000 rpm for 60 s, and shaking was performed for uniform mixing. After 30 min of standing, the microplate reader was used to perform reading.
The inhibition rate was calculated according to the following formula: Inhibition rate (%)=(Signal_Max-Signal_sample)/(Signal_Max-Signal_min)×100 (6) Fitting of Dose-Response Curve
as §5

Structure (SMILES) | IC50 (rhAOC1) [µM] | IC50 (MAO-B) [µM]
CCn1ccc2c(cnn2C/C(=C/F)CN)c1=O [Compound A29 hydrochloride, (E)-1-(2-(aminomethyl)-3-fluoroallyl)-5-ethyl-1,5-dihydro-4H-pyrazolo[4,3-c]pyridin-4-one] | 0.674 | > 100
Cl.NC/C(=C\F)Cn1cc2c(c1Cl)CCN(C1CC1)C2=O [Compound A42 hydrochloride, (E)-2-(2-(aminomethyl)-3-fluoroallyl)-1-chloro-5-cyclopropyl-2,5,6,7-tetrahydro-4H-pyrrolo[3,4-c]pyridin-4-one] | 28.9 | > 100
NC/C(=C\F)Cn1c(Br)c2c(c1Br)C(=O)N(C1CC1)CC2 [Compound A33 hydrochloride, (E)-2-(2-(aminomethyl)-3-fluoroallyl)-1,3-dibromo-5-cyclopropyl-2,5,6,7-tetrahydro-4H-pyrrolo[3,4-c]pyridin-4-one] | > 100 | > 100
Cc1c2c(cn1C/C(=C/F)CN)C(=O)N(C1CC1)CC2 [Compound A35 hydrochloride, (E)-2-(2-(aminomethyl)-3-fluoroallyl)-5-cyclopropyl-1-methyl-2,5,6,7-tetrahydro-4H-pyrrolo[3,4-c]pyridin-4-one] | 7.03 | 92.7
Cl.NC/C(=C\F)Cn1cc2c(c1Br)CCN(C1CC1)C2=O [Compound A32 hydrochloride, (E)-2-(2-(aminomethyl)-3-fluoroallyl)-1-bromo-5-cyclopropyl-2,5,6,7-tetrahydro-4H-pyrrolo[3,4-c]pyridin-4-one] | 23.6 | > 100
NC/C(=C\F)Cn1ncc2c1CCN(C1CC1)C2=O [Compound A2 hydrochloride, (E)-1-(2-(aminomethyl)-3-fluoroallyl)-5-cyclopropyl-1,5,6,7-tetrahydro-4H-pyrazolo[4,3-c]pyridin-4-one] | – | > 100
CCn1ccc2nn(C/C(=C/F)CN)cc2c1=O [Compound A28 hydrochloride, (E)-2-(2-(aminomethyl)-3-fluoroallyl)-5-ethyl-2,5-dihydro-4H-pyrazolo[4,3-c]pyridin-4-one] | 4.06 | > 100
CCN1CCc2nn(C/C(=C/F)CN)cc2C1=O [Compound A6 hydrochloride, (E)-2-(2-(aminomethyl)-3-fluoroallyl)-5-ethyl-2,5,6,7-tetrahydro-4H-pyrazolo[4,3-c]pyridin-4-one] | 8.95 | > 100
CC(C)(C)N1CCc2nn(C/C(=C/F)CN)cc2C1=O [Compound A7 hydrochloride, (E)-2-(2-(aminomethyl)-3-fluoroallyl)-5-tert-butyl-2,5,6,7-tetrahydro-4H-pyrazolo[4,3-c]pyridin-4-one] | 50 | > 100

Other lines, results leading:

IC50 (rhAOC1) [µM] | IC50 (MAO-B) [µM] | Structure (SMILES)
9.65 | > 100 | NC/C(=C\F)Cn1cc2c(=O)n(C3CC3)ccc2n1 [Compound A41, (E)-2-(2-(aminomethyl)-3-fluoroallyl)-5-cyclopropyl-2,5-dihydro-4H-pyrazolo[4,3-c]pyridin-4-one]
11.5 | > 100 | CCN1CCc2cn(C/C(=C/F)CN)cc2C1=O [Compound A25, (E)-2-(2-(aminomethyl)-3-fluoroallyl)-5-ethyl-2,5,6,7-tetrahydro-4H-pyrrolo[3,4-c]pyridin-4-one]
3.18 | > 100 | CNC(=O)c1cnn(C/C(=C/F)CN)c1 [Compound B1, (E)-1-(2-(aminomethyl)-3-fluoroallyl)-N-methyl-1H-pyrazole-4-carboxamide]
14.8 | > 100 | NC/C(=C\F)Cn1cc2c(c1)C(=O)N(C1CC1)CC2 [Compound A22, (E)-2-(2-(aminomethyl)-3-fluoroallyl)-5-cyclopropyl-2,5,6,7-tetrahydro-4H-pyrrolo[3,4-c]pyridin-4-one]
